# In patent US20220395472A1 (Dermavant Sciences GmbH, priority 2021, published 2022):
# System: adults with mild to severe plaque psoriasis
# Assay: PSOARING 1 & 2 12-week pivotal phase 3 trials
# Format: in vivo, human
# Conditions: Week 12
# Description: All secondary endpoints were met, with statistical significance. […] Here, we present further analyses of the DLQI results, including an evaluation of correlations between the DLQI and clinical efficacy as assessed by PGA and Psoriasis Area and Severity Index (PASI) scores in PSOARING 1 & 2.
# The DLQI is a 10-item scale where each item rates impact on quality of life (QoL) on a 4-point scale from 0 (not at all) to 3 (very much); lower scores indicate higher QoL. Efficacy was evaluated using PGA and PASI. Spearman rank correlations were used to evaluate correlations between changes from baseline in efficacy and changes from baseline in QoL at Week 12. Analyses used observed cases and were based on the intention-to-treat population.
smiles,measurement,setting,value
"CC(C)c1c(O)cc(/C=C/c2ccccc2)cc1O [Tapinarof, 3,5-Dihydroxy-4-isopropyl-trans-stilbene]",PGA response (PGA 0 or 1 and ≥2-grade improvement from baseline),PSOARING 1,35.4%
same,mean change in DLQI from baseline,PSOARING 1,~5.0
same,patients who achieved a DLQI of 0 or 1,PSOARING 1,47.4%
same,PGA response (PGA 0 or 1 and ≥2-grade improvement from baseline),PSOARING 2,40.2%
same,mean change in DLQI from baseline,PSOARING 2,~4.7
same,patients who achieved a DLQI of 0 or 1,PSOARING 2,44.9%
